Structures are written as SMILES.

Data on 18 molecules can be found in patent US20250320213A1, “Nitrogen-Containing Heterocyclic Compounds” (Pfizer Inc., priority 2024, published 2025).

For assay [1], the system named is CCL17 secretion in peripheral human whole blood. Description: Human Whole Blood (HWB) CCL17 TR-FRET Assay (IL-13 stimulated CCL17 secretion). Type of assay: cell-based. As to conditions: Homo sapiens, 48 h, inhibition of CCL17 secretion in human whole blood, 10 ng/mL IL13, 48 hours. Summed up:
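Heparinized peripheral human whole blood was preincubated with compound (11-point, 3-fold series, duplicate) for 2 h at 37 °C, then stimulated with IL-13 at 10 ng/mL final for 48 h at 37 °C. Secreted CCL17 in the serum was quantified by TR-FRET sandwich immunoassay (665/615 nm ratio, 16 h RT); IC50 derived.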
Background: In TR-FRET formats the signal depends on donor and acceptor labels being close together.

The next assay addresses T1, STAT6 (Homo sapiens, UniProt P42226).
T1 construct: stably transfected HaCaT keratinocyte cell line, which expresses NanoLuc luciferase reporter gene under the transcriptional control of the STAT6 responsive promoter; endogenous in cells; host or cells: HaCaT keratinocyte reporter cell line (stably transfected with a NanoLuc reporter)
T1 sequence (P42226 1-847): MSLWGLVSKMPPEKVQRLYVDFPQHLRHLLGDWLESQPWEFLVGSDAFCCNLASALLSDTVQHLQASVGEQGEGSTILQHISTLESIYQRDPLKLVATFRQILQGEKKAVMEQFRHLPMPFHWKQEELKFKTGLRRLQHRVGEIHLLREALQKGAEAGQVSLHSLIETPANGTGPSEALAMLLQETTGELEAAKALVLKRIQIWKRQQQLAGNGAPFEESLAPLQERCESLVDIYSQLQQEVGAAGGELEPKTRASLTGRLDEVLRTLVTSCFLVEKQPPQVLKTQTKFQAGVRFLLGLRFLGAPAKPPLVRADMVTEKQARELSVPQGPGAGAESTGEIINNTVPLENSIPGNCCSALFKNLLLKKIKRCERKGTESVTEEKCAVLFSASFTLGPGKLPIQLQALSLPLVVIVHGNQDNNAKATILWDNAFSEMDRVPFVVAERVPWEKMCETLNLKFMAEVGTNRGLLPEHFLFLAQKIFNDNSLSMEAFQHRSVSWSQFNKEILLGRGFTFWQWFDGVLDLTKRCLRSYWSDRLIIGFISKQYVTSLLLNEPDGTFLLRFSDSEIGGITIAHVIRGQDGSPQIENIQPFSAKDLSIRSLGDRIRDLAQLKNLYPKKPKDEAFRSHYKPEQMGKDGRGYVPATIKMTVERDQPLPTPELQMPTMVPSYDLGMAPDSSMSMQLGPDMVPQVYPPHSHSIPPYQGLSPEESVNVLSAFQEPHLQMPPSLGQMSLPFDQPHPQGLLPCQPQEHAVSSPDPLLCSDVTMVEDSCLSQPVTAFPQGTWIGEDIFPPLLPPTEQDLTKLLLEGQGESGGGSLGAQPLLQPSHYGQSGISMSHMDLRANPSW
Description: STAT6 Reporter Luciferase Assay (IL-13 stimulated HaCaT keratinocyte NanoLuc reporter cells). Type of assay: cell-based. As to conditions: STAT6 NanoLuc luciferase reporter, IL-13 stimulated HaCaT keratinocyte cells; read-out: Reporter EC50. Summed up:
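Cells were plated overnight, washed, exposed to compound for two hours, stimulated with IL-13 (0.12 nM final) for four hours at 37 °C, and then lysed with Nano-Glo substrate for 15 min before luminescence reading.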
(A reporter such as luciferase makes a cellular process visible.)

In assay [1], `CC(C)n1nc(C(=O)NCc2ccc(NC(=O)N(C)C)cc2)c2c1CCN(c1ccc(N3C(=O)CC[C@H]3CO)cn1)C2` [Example 69, (S)-N-(4-(3,3-dimethylureido)benzyl)-5-(5-(2-(hydroxymethyl)-5-oxopyrrolidin-1-yl)pyridin-2-yl)-1-isopropyl-4,5,6,7-tetrahydro-1H-pyrazolo[4,3-c]pyridine-3-carboxamide] came in with an IC50 of 8110 nM. The concentration for a half-maximal effect (EC50) at STAT6 was 1070 nM.
The like results for `CN(C)C(=O)Nc1ccc(CNC(=O)c2nn(C)c3c2CN(c2ccc(C(=O)N(C)C)cn2)CC3(F)F)cc1` [Example 70, 5-(5-(dimethylcarbamoyl)pyridin-2-yl)-N-(4-(3,3-dimethylureido)benzyl)-7,7-difluoro-1-methyl-4,5,6,7-tetrahydro-1H-pyrazolo[4,3-c]pyridine-3-carboxamide] were, in that order, 81 nM and 8 nM.
In assay [1], `CC(C)n1nc(C(=O)NCc2ccc(NC(=O)N(C)C)cc2)c2c1CCN(c1ccc(N3C(=O)CCC34CC4)cn1)C2` [Example 73, N-(4-(3,3-dimethylureido)benzyl)-1-isopropyl-5-(5-(5-oxo-4-azaspiro[2.4]heptan-4-yl)pyridin-2-yl)-4,5,6,7-tetrahydro-1H-pyrazolo[4,3-c]pyridine-3-carboxamide] gave a concentration for half-maximal inhibition (IC50) of 9350 nM. In addition, the concentration giving a half-maximal response (EC50) at STAT6 worked out at 121 nM.
The like results for `CCCn1nc(C(=O)NCc2ccc(NC(=O)N(C)C)cc2)c2c1CCN(c1ccc(C(=O)N(C)C)cn1)C2` [Example 74, 5-(5-(dimethylcarbamoyl)pyridin-2-yl)-N-(4-(3,3-dimethylureido)benzyl)-1-propyl-4,5,6,7-tetrahydro-1H-pyrazolo[4,3-c]pyridine-3-carboxamide] were, in that order, 120 nM and 11 nM.
`CC(C)n1nc(C(=O)NCc2ccc(NC(=O)N(C)C)cc2)c2c1CCN(c1ccc(N3C[C@H](CO)CC3=O)cn1)C2` [Example 75, (R)-N-(4-(3,3-dimethylureido)benzyl)-5-(5-(4-(hydroxymethyl)-2-oxopyrrolidin-1-yl)pyridin-2-yl)-1-isopropyl-4,5,6,7-tetrahydro-1H-pyrazolo[4,3-c]pyridine-3-carboxamide] returned an IC50 in assay [1] of 4560 nM. In addition, the EC50 on STAT6 was 2830 nM.
Consider `CN(C)C(=O)Nc1ccc(CNC(=O)c2nn(C3CCOCC3)c3c2CN(c2ccc(C(=O)N(C)C)cn2)CC3)cc1` [Example 76, 5-(5-(dimethylcarbamoyl)pyridin-2-yl)-N-(4-(3,3-dimethylureido)benzyl)-1-(tetrahydro-2H-pyran-4-yl)-4,5,6,7-tetrahydro-1H-pyrazolo[4,3-c]pyridine-3-carboxamide], for which, in assay [1], the IC50 stood at 156 nM. Moreover, at STAT6, the EC50 was 57 nM.
The like results for `CC[C@H]1CCC(=O)N1c1ccc(N2CCc3c(c(C(=O)NCc4ccc(NC(=O)N(C)C)cc4)nn3C(C)C)C2)nc1` [Example 79, (S)-N-(4-(3,3-dimethylureido)benzyl)-5-(5-(2-ethyl-5-oxopyrrolidin-1-yl)pyridin-2-yl)-1-isopropyl-4,5,6,7-tetrahydro-1H-pyrazolo[4,3-c]pyridine-3-carboxamide] were, in that order, 1780 nM and 41 nM.
`CC(C)n1nc(C(=O)NCc2ccc(NC(=O)N(C)C)cc2)c2c1CCN(c1ccc(N3CC[C@H](F)C3=O)cn1)C2` [Example 84, (S)-N-(4-(3,3-dimethylureido)benzyl)-5-(5-(3-fluoro-2-oxopyrrolidin-1-yl)pyridin-2-yl)-1-isopropyl-4,5,6,7-tetrahydro-1H-pyrazolo[4,3-c]pyridine-3-carboxamide] displayed an IC50 in assay [1] of 56 nM. Further, the concentration for a half-maximal effect (EC50) on STAT6 stood at 2 nM.
In turn, `CC(C)n1nc(C(=O)NCc2ccc(NC(=O)N(C)C)cc2)c2c1CCN(c1ccc(N3C(=O)CC[C@@H]3CO)cn1)C2` [Example 88, (R)-N-(4-(3,3-dimethylureido)benzyl)-5-(5-(2-(hydroxymethyl)-5-oxopyrrolidin-1-yl)pyridin-2-yl)-1-isopropyl-4,5,6,7-tetrahydro-1H-pyrazolo[4,3-c]pyridine-3-carboxamide] displayed a 50% inhibitory concentration (IC50) in assay [1] of 2080 nM. In addition, on STAT6, the EC50 was found to be 424 nM.
Take `CN(C)C(=O)Nc1ccc(CNC(=O)c2nn(CC3CC3)c3c2CN(c2ccc(C(=O)N(C)C)cn2)CC3)cc1` [Example 89, 1-(cyclopropylmethyl)-5-(5-(dimethylcarbamoyl)pyridin-2-yl)-N-(4-(3,3-dimethylureido)benzyl)-4,5,6,7-tetrahydro-1H-pyrazolo[4,3-c]pyridine-3-carboxamide]: the IC50 in assay [1] worked out at 149 nM. Besides, the EC50 on STAT6 was found to be 12 nM.
For the molecule `CC(C)n1nc(C(=O)NCc2ccc(NC(=O)N(C)C)cc2)c2c1CCN(c1ccc(N3CC4CC4C3=O)cn1)C2` (stereo not drawn) [Example 91, N-(4-(3,3-dimethylureido)benzyl)-1-isopropyl-5-(5-(2-oxo-3-azabicyclo[3.1.0]hexan-3-yl)pyridin-2-yl)-4,5,6,7-tetrahydro-1H-pyrazolo[4,3-c]pyridine-3-carboxamide], in assay [1], the concentration for half-maximal inhibition (IC50) stood at 327 nM. For the same molecule, the concentration for a half-maximal effect (EC50) on STAT6 came out at 14 nM.
For `CN(C)C(=O)Nc1ccc(CNC(=O)c2nn(C3COC3)c3c2CN(c2ccc(C(=O)N(C)C)cn2)CC3)cc1` [Example 94, 5-(5-(dimethylcarbamoyl)pyridin-2-yl)-N-(4-(3,3-dimethylureido)benzyl)-1-(oxetan-3-yl)-4,5,6,7-tetrahydro-1H-pyrazolo[4,3-c]pyridine-3-carboxamide], in that order: 89 nM and 49 nM.
On to `CN(C)C(=O)Nc1ccc(CNC(=O)c2nn(C3CCC3)c3c2CN(c2ccc(C(=O)N(C)C)cn2)CC3)cc1` [Example 96, 1-cyclobutyl-5-(5-(dimethylcarbamoyl)pyridin-2-yl)-N-(4-(3,3-dimethylureido)benzyl)-4,5,6,7-tetrahydro-1H-pyrazolo[4,3-c]pyridine-3-carboxamide], for which the half-maximal inhibitory concentration (IC50) in assay [1] turned out to be 66 nM. Moreover, on STAT6, the half-maximal effective concentration (EC50) was found to be 5 nM.
As to `CC(C)n1nc(C(=O)NCc2ccc(NC(=O)N(C)C)cc2)c2c1CCN(c1ccc(N3CC4(CC4)CC3=O)cn1)C2` [Example 97, N-(4-(3,3-dimethylureido)benzyl)-1-isopropyl-5-(5-(6-oxo-5-azaspiro[2.4]heptan-5-yl)pyridin-2-yl)-4,5,6,7-tetrahydro-1H-pyrazolo[4,3-c]pyridine-3-carboxamide], 3480 nM corresponded to half-maximal inhibition in assay [1] (IC50). Besides, the EC50 on STAT6 worked out at 65 nM.
The like results for `CC(C)n1nc(C(=O)NCc2ccc(NC(=O)N(C)C)cc2)c2c1CCN(c1ccc(N3CC[C@@H](F)C3=O)cn1)C2` [Example 98, (R)-N-(4-(3,3-dimethylureido)benzyl)-5-(5-(3-fluoro-2-oxopyrrolidin-1-yl)pyridin-2-yl)-1-isopropyl-4,5,6,7-tetrahydro-1H-pyrazolo[4,3-c]pyridine-3-carboxamide] were, in that order, 573 nM and 48 nM.
As for `CC1COC(=O)N1c1ccc(N2CCc3c(c(C(=O)NCc4ccc(NC(=O)N(C)C)cc4)nn3C(C)C)C2)nc1` (stereo not drawn) [Example 99, N-(4-(3,3-dimethylureido)benzyl)-1-isopropyl-5-(5-(4-methyl-2-oxooxazolidin-3-yl)pyridin-2-yl)-4,5,6,7-tetrahydro-1H-pyrazolo[4,3-c]pyridine-3-carboxamide], the IC50 in assay [1] is 453 nM. Further, the EC50 on STAT6 worked out at 17 nM.
Turning to `CC(C)n1nc(C(=O)NCc2ccc(NC(=O)N(C)C)cc2)c2c1CCN(c1ccc(N3CCOCCC3=O)cn1)C2` [Example 100, N-(4-(3,3-dimethylureido)benzyl)-1-isopropyl-5-(5-(5-oxo-1,4-oxazepan-4-yl)pyridin-2-yl)-4,5,6,7-tetrahydro-1H-pyrazolo[4,3-c]pyridine-3-carboxamide], in assay [1], inhibition was half-maximal at 1800 nM (IC50). In addition, the 50% effective concentration (EC50) on STAT6 stood at 174 nM.
For `CC(C)n1nc(C(=O)NCc2ccc(NC(=O)N(C)C)cc2)c2c1CCN(c1ccc(N3CCOCC3=O)cn1)C2` [Example 103, N-(4-(3,3-dimethylureido)benzyl)-1-isopropyl-5-(5-(3-oxomorpholino)pyridin-2-yl)-4,5,6,7-tetrahydro-1H-pyrazolo[4,3-c]pyridine-3-carboxamide], in that order: 535 nM and 47 nM.

Broadly, the IC50 is the midpoint of a concentration-inhibition curve. The term EC50 denotes the concentration giving half of the maximal effect.
